Assay results as given in the supplement of paper PMC10307832.

Key:
Assay in all cases: relative viability (nuclei count vs DMSO), 5 days (fraction); higher = more cells survive
TPCA-1 + Navitoclax = compound: C1=CC(=CC=C1C2=CC(=C(S2)NC(=O)N)C(=O)N)F [TPCA-1] + CC1(C)CCC(c2ccc(Cl)cc2)=C(CN2CCN(c3ccc(C(=O)NS(=O)(=O)c4ccc(N[C@H](CCN5CCOCC5)CSc5ccccc5)c(S(=O)(=O)C(F)(F)F)c4)cc3)CC2)C1 [Navitoclax] (partner 0.5 µM)
Summary of the method: (§1)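 Each reported value is a median over duplicate plates. It expresses relative viability: treated-well nuclei count divided by vehicle-well nuclei count. Lung cancer cell lines in 1536-well plates were dosed by pin tool a day after seeding, alone with one drug or with a fixed anchor-drug dose plus five library-drug doses (not always all listed) in √10 steps, and nuclei were counted after 5 days.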

TPCA-1 + Palbociclib = compound: C1=CC(=CC=C1C2=CC(=C(S2)NC(=O)N)C(=O)N)F [TPCA-1] + CC(=O)c1c(C)c2cnc(Nc3ccc(N4CCNCC4)cn3)nc2n(C2CCCC2)c1=O [Palbociclib] (partner 0.5 µM)
Summary of the method: as §1

Lestaurtinib + AZD7762 = compound: C[C@]12O[C@H](C[C@]1(O)CO)n1c3ccccc3c3c4c(c5c6ccccc6n2c5c31)CNC4=O [Lestaurtinib] + NC(=O)Nc1cc(-c2cccc(F)c2)sc1C(=O)N[C@H]1CCCNC1 [AZD7762] (partner 0.2 µM)
Summary of the method: as §1

[1] = compound: C1/C(=C\C2=CC=CS2)/C(=O)/C(=C/C3=CC=CS3)/C1 + Cc1nc(Nc2ncc(C(=O)Nc3c(C)cccc3Cl)s2)cc(N2CCN(CCO)CC2)n1 [Dasatinib] (partner 0.075 µM)
Summary of the method: as §1

Cell Line	relative viability (TPCA-1 + Navitoclax; first compound 0.04 µM)	relative viability (TPCA-1 + Navitoclax; first compound 0.1265 µM)	relative viability (TPCA-1 + Navitoclax; first compound 0.4 µM)	relative viability (TPCA-1 + Navitoclax; first compound 1.265 µM)	relative viability (TPCA-1 + Navitoclax; first compound 4 µM)	relative viability (TPCA-1 + Palbociclib; first compound 0.04 µM)	relative viability (TPCA-1 + Palbociclib; first compound 0.1265 µM)	relative viability (TPCA-1 + Palbociclib; first compound 0.4 µM)	relative viability (TPCA-1 + Palbociclib; first compound 1.265 µM)	relative viability (TPCA-1 + Palbociclib; first compound 4 µM)	relative viability (Lestaurtinib + AZD7762; first compound 0.005 µM)	relative viability (Lestaurtinib + AZD7762; first compound 0.01581 µM)	relative viability (Lestaurtinib + AZD7762; first compound 0.05 µM)	relative viability (Lestaurtinib + AZD7762; first compound 0.1581 µM)	relative viability (Lestaurtinib + AZD7762; first compound 0.5 µM)	relative viability ([1]; first compound 0.2 µM)	relative viability ([1]; first compound 0.6325 µM)	relative viability ([1]; first compound 2 µM)	relative viability ([1]; first compound 6.325 µM)	relative viability ([1]; first compound 20 µM)
HOP-62	0.982	1.06	1.02	0.899	0.809	0.483	0.458	0.497	0.418	0.466	0.56	0.657	0.323	0.609	0.313	0.678	0.683	0.729	0.651	0.61
LC-2-ad	0.361	0.377	0.414	0.357	0.11	0.467	0.465	0.49	0.489	0.421	0.892	0.908	0.558	0.409	0.225	0.667	0.59	0.655	0.482	0.626
LCLC-97TM1	0.394	0.494	0.446	0.259	0.238	0.231	0.2	0.199	0.232	0.206	0.167	0.279	0.166	0.175	0.114	0.896	0.776	0.791	0.672	0.811
LK-2	0.868	0.664	0.955	0.778	0.71	0.726	–	0.725	0.697	0.427	0.388	0.523	0.272	0.276	0.135	0.359	0.443	0.345	0.29	0.346
LOU-NH91	0.822	0.585	0.692	0.65	0.507	0.539	0.51	0.471	0.524	0.532	0.688	0.754	0.573	0.524	0.378	0.559	0.582	0.585	0.514	0.531
LU99A	0.976	0.77	0.802	0.766	0.473	0.468	0.365	0.407	0.369	0.258	0.362	0.348	0.34	0.277	0.158	0.611	0.539	0.714	0.623	0.554
LXF-289	0.937	0.907	0.949	0.915	0.839	0.623	0.605	0.627	0.643	0.514	1.12	1.14	0.801	0.864	0.17	0.241	0.178	0.251	0.154	0.203
NCI-H23	0.823	0.742	0.687	0.616	0.694	0.539	0.527	0.51	0.431	0.435	0.213	0.257	0.227	0.246	0.203	0.742	0.832	1.07	0.804	0.692
NCI-H322M	1.26	1.07	1.18	1.13	1.17	0.469	0.469	0.488	0.523	0.403	0.511	0.538	–	0.517	0.479	0.256	0.244	0.249	0.237	0.247
NCI-H441	0.604	0.405	0.736	0.578	0.297	0.186	0.183	0.188	0.239	0.162	1.17	1.39	1.04	1.01	0.743	0.798	0.739	0.573	0.522	0.412
NCI-H460	1.24	1.04	1	1.1	0.709	0.187	0.086	–	0.16	0.136	0.651	0.765	0.757	1.31	0.645	0.562	0.526	0.6	0.461	0.484
NCI-H647	1.1	0.9	1.22	0.67	0.706	0.47	0.4	0.342	0.38	0.188	0.307	0.756	0.275	0.165	0.0697	0.214	0.145	0.19	0.211	0.16
NCI-H727	0.409	0.431	0.512	0.413	0.404	0.761	0.47	0.594	0.62	0.593	0.564	0.633	0.522	–	0.452	0.333	0.49	0.447	0.449	0.387
NCI-H838	1.23	0.985	1.13	0.995	0.812	0.225	0.193	0.222	0.194	0.199	1.01	0.951	0.933	0.873	0.681	0.278	0.268	0.274	0.276	0.284
NCI-H1355	1.02	0.903	0.912	0.826	0.686	0.455	0.395	0.408	0.389	0.361	0.839	0.815	0.574	0.54	0.422	0.772	0.701	0.712	0.598	0.682
NCI-H1395	1.2	0.932	1.25	1.05	0.99	0.644	0.596	0.639	0.635	0.512	0.385	0.405	0.407	0.384	0.325	0.422	0.406	0.399	0.406	0.382
